Like-named read-outs stand apart in the source and are kept apart here.
Test system: patients with Meniere's disease and endolymphatic hydrops associated diseases
Settings: for hearing level: case 4, right ear
From the text: In the present case who could be followed up for more than 24 months after treatment with water intake, the therapeutic effect was judged by using the criteria of AAO-HNS (1995)^14), 15). Proviso that in an examination on changes of the hearing, although the criteria in the four-frequency pure-tone averages (PTA) of AAO-HNS (1995)^14) adopted mean values of the hearing levels consisting of 500 Hz, 1000 Hz, 2000 Hz and 3000 Hz, in our case, the value of 4000 Hz was used in stead of that of 3000 Hz.
In each figure, a horizontal axis indicates frequency (Hz) and a vertical axis indicates hearing level. […] A graph in the upper position indicates better hearing level.

In the case of `O` [water intake, water], the “hearing level after treatment” value (case 1, right ear, 125 Hz, Aug. 29, 2003, water intake 2 lit./day, before 45 dB) is reported as 0 dB, the “hearing level after treatment” value (case 1, right ear, 250 Hz, Aug. 29, 2003, water intake 2 lit./day, before 45 dB) is reported as 5 dB and the “hearing level after treatment” value (case 1, right ear, 500 Hz, Aug. 29, 2003, water intake 2 lit./day, before 45 dB) is reported as 15 dB. For the same compound, the “hearing level after treatment” value (case 1, right ear, 1000 Hz, Aug. 29, 2003, water intake 2 lit./day, before 50 dB) was 15 dB, the “hearing level after treatment” value (case 1, right ear, 2000 Hz, Aug. 29, 2003, water intake 2 lit./day, before 35 dB) was 15 dB and the “hearing level after treatment” value (case 1, right ear, 4000 Hz, Aug. 29, 2003, water intake 2 lit./day, before 10 dB) was 10 dB. For the same compound, the “hearing level after treatment” value (case 1, right ear, 8000 Hz, Aug. 29, 2003, water intake 2 lit./day, before 15 dB) was 25 dB, the “hearing level after treatment, average (500-4000 Hz)” value (case 1, right ear, Aug. 29, 2003, water intake 2 lit./day, before 35 dB) was 13.75 dB and the “hearing level after treatment” value (case 3, left ear, 125 Hz, Jun. 7, 2002, poorest level 18-24 months after treatment, water intake, before 40 dB) was 25 dB. For the same compound, the “hearing level after treatment” value (case 3, left ear, 250 Hz, Jun. 7, 2002, poorest level 18-24 months after treatment, water intake, before 25 dB) was 20 dB, the “hearing level after treatment” value (case 3, left ear, 500 Hz, Jun. 7, 2002, poorest level 18-24 months after treatment, water intake, before 25 dB) was 15 dB and the “hearing level after treatment” value (case 3, left ear, 1000 Hz, Jun. 7, 2002, poorest level 18-24 months after treatment, water intake, before 15 dB) was 5 dB. For the same compound, the “hearing level after treatment” value (case 3, left ear, 2000 Hz, Jun. 7, 2002, poorest level 18-24 months after treatment, water intake, before 10 dB) was 5 dB, the “hearing level after treatment” value (case 3, left ear, 4000 Hz, Jun. 7, 2002, poorest level 18-24 months after treatment, water intake, before 45 dB) was 5 dB and the “hearing level after treatment” value (case 3, left ear, 8000 Hz, Jun. 7, 2002, poorest level 18-24 months after treatment, water intake, before 80 dB) was 15 dB. For the same compound, the “hearing level after treatment, average (500-4000 Hz)” value (case 3, left ear, Jun. 7, 2002, poorest level 18-24 months after treatment, water intake, before 23.75 dB) was 7.5 dB, the “hearing improved as compared with before the treatment (four-frequency PTA)” value (case 3, left ear, water intake) was 16.25 dB and the “category of change of hearing, AAO-HNS (1995) criteria” value (case 3, water intake) was “improved”. For the same compound, the hearing level (125 Hz, Aug. 2003, water intake 1.5 lit./day) was 25 dB, the hearing level (125 Hz, Dec. 2003, water intake 1.5 lit./day) was 25 dB and the hearing level (125 Hz, Jan. 2004, water intake 1.5 lit./day) was 25 dB. For the same compound, the hearing level (125 Hz, Jul. 2003, water intake 1.5 lit./day) was 50 dB, the hearing level (125 Hz, Jun. 2003, water intake 1.5 lit./day from Jun. 20, 2003) was 30 dB and the hearing level (125 Hz, Nov. 2003, water intake 1.5 lit./day) was 25 dB. For the same compound, the hearing level (125 Hz, Oct. 2003, water intake 1.5 lit./day) was 30 dB, the hearing level (125 Hz, Sep. 2003, water intake 1.5 lit./day) was 30 dB and the hearing level (250 Hz, Aug. 2003, water intake 1.5 lit./day) was 25 dB. It also gave a hearing level (250 Hz, Dec. 2003, water intake 1.5 lit./day) of 25 dB, a hearing level (250 Hz, Jan. 2004, water intake 1.5 lit./day) of 25 dB and a hearing level (250 Hz, Jul. 2003, water intake 1.5 lit./day) of 45 dB. For the same compound, the hearing level (250 Hz, Jun. 2003, water intake 1.5 lit./day from Jun. 20, 2003) was 35 dB, the hearing level (250 Hz, Nov. 2003, water intake 1.5 lit./day) was 20 dB and the hearing level (250 Hz, Oct. 2003, water intake 1.5 lit./day) was 30 dB. For the same compound, the hearing level (250 Hz, Sep. 2003, water intake 1.5 lit./day) was 40 dB, the hearing level (500 Hz, Aug. 2003, water intake 1.5 lit./day) was 25 dB and the hearing level (500 Hz, Dec. 2003, water intake 1.5 lit./day) was 15 dB. It also gave a hearing level (500 Hz, Jan. 2004, water intake 1.5 lit./day) of 20 dB, a hearing level (500 Hz, Jul. 2003, water intake 1.5 lit./day) of 45 dB and a hearing level (500 Hz, Jun. 2003, water intake 1.5 lit./day from Jun. 20, 2003) of 40 dB. The hearing level (500 Hz, Nov. 2003, water intake 1.5 lit./day) was 20 dB, the hearing level (500 Hz, Oct. 2003, water intake 1.5 lit./day) was 25 dB and the hearing level (500 Hz, Sep. 2003, water intake 1.5 lit./day) was 40 dB. For the same compound, the hearing level (1000 Hz, Aug. 2003, water intake 1.5 lit./day) was 30 dB, the hearing level (1000 Hz, Dec. 2003, water intake 1.5 lit./day) was 25 dB and the hearing level (1000 Hz, Jan. 2004, water intake 1.5 lit./day) was 25 dB. The hearing level (1000 Hz, Jul. 2003, water intake 1.5 lit./day) was 50 dB, the hearing level (1000 Hz, Jun. 2003, water intake 1.5 lit./day from Jun. 20, 2003) was 50 dB and the hearing level (1000 Hz, Nov. 2003, water intake 1.5 lit./day) was 30 dB. For the same compound, the hearing level (1000 Hz, Oct. 2003, water intake 1.5 lit./day) was 25 dB, the hearing level (1000 Hz, Sep. 2003, water intake 1.5 lit./day) was 45 dB and the hearing level (2000 Hz, Aug. 2003, water intake 1.5 lit./day) was 20 dB. It also gave a hearing level (2000 Hz, Dec. 2003, water intake 1.5 lit./day) of 20 dB, a hearing level (2000 Hz, Jan. 2004, water intake 1.5 lit./day) of 20 dB and a hearing level (2000 Hz, Jul. 2003, water intake 1.5 lit./day) of 45 dB. The hearing level (2000 Hz, Jun. 2003, water intake 1.5 lit./day from Jun. 20, 2003) was 25 dB, the hearing level (2000 Hz, Nov. 2003, water intake 1.5 lit./day) was 20 dB and the hearing level (2000 Hz, Oct. 2003, water intake 1.5 lit./day) was 20 dB. It also gave a hearing level (2000 Hz, Sep. 2003, water intake 1.5 lit./day) of 40 dB, a hearing level (4000 Hz, Aug. 2003, water intake 1.5 lit./day) of 30 dB and a hearing level (4000 Hz, Dec. 2003, water intake 1.5 lit./day) of 30 dB.

Source: patent US20060003016A1, “Therapeutic method for endolymphatic hydrops associated diseases” (priority 2004, published 2006)
